Reference: patent US12685791B2, “Free PSA antibodies as diagnostics, prognostics and therapeutics for prostate cancer” (Memorial Sloan Kettering Cancer Center, priority 2011, dated 2026)
“And” between values parts separate entries of the source, which are not always exact repeats. Identical values can stand only once.

Experiments:
[1] = test system: bone remodeling (fractured tibia); test: Bone fracture model, PET/SPECT of bone remodeling; assay type: in vivo, mice; conditions: PET or SPECT
Protocol: Osseous tumors were established in intact male mice via injection of LNCaP-AR in the tibia of the left hindlimb as follows. Prior to surgery, […] male SCID mice were anesthetized with ketamine, and an incision was be made in the left hind limb. The tibia was punctured using a bone drill, and 1×10^5 cells (22Rv1 or LNCaP-AR) injected into the marrow. The puncture was closed with bone wax, the incision sutured, and animals received a palliative dose of carprofen (5 mg/kg) once daily for three days post surgery. Tumor development was followed with bioluminescence imaging, and confirmed with MRI. The bone fracture model was prepared similar to the osseous tumor model, excluding injection of cells and application of bone wax.
In FIG. 14c, intact male mice received a fracture in the tibia, and ten days post surgery, bone remodeling was evaluated with ^18F—NaF. A clear region of contrast was identified in the fractured tibia by PET.

fPSA and tPSA [2] = test: Tumor PSA ELISA, castrate male mice bearing LNCaP-AR tumors treated with vehicle or MDV3100 (Table 14); assay type: in vivo, human; conditions: for f/t PSA Ratio / fPSA / fPSA/tProtein: tumor, individual mice, listed as MDV
Protocol: (§1) Mice were injected with ^89Zr-5A10, and at the indicated time point post injection, were sacrificed for PSA analysis. Tumor tissues were surgically excised. fPSA and total PSA (“tPSA”) were determined with PSA-directed ELISA, and the values were normalized to total protein concentration. fPSA concentrations are reported as average ng/ml(a), total PSA (“tPSA”) concentrations are reported as ng/mL (b), and total protein concentrations are reported as ng/mg (c). ELISAs were conducted as follows for PSA detection in serum and tumor tissues. fPSA and tPSA were measured with a dual-label immunofluorometric assay (DELFIA Prostatus™ PSA Free/Total PSA; Perkin-Elmer Life Sciences) according to manufacturer's recommendations. This assay measured fPSA and complexed PSA (cPSA) in an equimolar fashion^8, and the cross-reactivity of PSA-ACT for fPSA was <0.2%^9. […] For detection, the 1235 automatic immunoassay system from Perkin-Elmer Life Sciences was used. cPSA concentrations were calculated by subtracting fPSA from tPSA.
As expected, each dose of MDV3100 inhibited AR signaling and fPSA synthesis (Table 14). Table 14 provides data regarding tumor analysis of PSA expression levels via ELISA in castrate male mice bearing LNCaP-AR tumors treated with antiandrogens. Castrate male mice bearing LNCaP-AR xenografts received a daily oral gavage of vehicle (VEH #), 10 mg/kg (MDV10 #), 40 mg/kg (MDV40 #), or 80 mg/kg (MDV80 #). Six days post manipulation, mice were injected with ^89Zr-5A10. Twenty four hours post injection, mice were sacrificed for PSA analysis. Tumor tissues were surgically excised. fPSA and tPSA were determined with PSA-directed ELISA (as above), and in the case of intratumoral PSA, the values were normalized to total protein concentration. ^afPSA concentrations are reported as ng/ml, ^btotal PSA concentrations are reported as ng/mL, ^ctotal protein concentrations are reported as ng/mg. Abbreviations: fPSA, fPSA; tPSA, total PSA.

LNCaP-AR xenografts [3] = test: Ex vivo biodistribution of 89Zr-5A10, castrate male mice bearing LNCaP-AR xenografts treated with vehicle or MDV3100 (Table 13); assay type: in vivo
Protocol: All animal experiments were conducted in compliance with Institutional Animal Care and Use Committee (IACUC) guidelines and the Guide for the Care and Use of Laboratory Animals. Male CB-17 SCID mice (6-8 weeks old) were obtained from Taconic Farms Inc. (Hudson, NY), LNCaP-AR, 22Rv1, and PC3 tumors were inoculated in the right flank by sub-cutaneous (s.c.) injection of 1.0×10^6 cells in a 200 μL cell suspension of a 1:1 v/v mixture of media with reconstituted basement membrane (BD Matrigel™, Collaborative Biomedical Products Inc., Bedford, MA). Palpable tumors (50-250 mm^3) developed after a period of 3-7 weeks. Surgical castration and pellet implantation were performed according to known protocols under anesthesia with isoflurane. […]
Tissues were harvested at multiple time points post-injection (p.i.) to determine the kinetics of radiotracer biodistribution (FIG. 3a). […] Animals (n=4-5, per group) were euthanized by CO2 (g) asphyxiation at 1, 4, 12, 24, 48, 72, 96, and 120 h post-injection and 16 tissues (including the tumor) were removed, rinsed in water, dried in air for 5 min., weighed and counted on a gamma-counter for accumulation of ^89Zr-radioactivity. […] Count data were background- and decay-corrected and the tissue uptake measured in units of percentage injected dose per gram (% ID/g) for each sample was calculated by normalization to the total amount of activity injected. […]

LNCaP-AR xenografts [4] = test: 89Zr-5A10 PET, region-of-interest analysis (SUVmean) of s.c. LNCaP-AR tumors (Table 16); assay type: in vivo, mice
Protocol: PET imaging experiments were conducted on a microPET Focus 120 scanner (Concorde Microsystems). […] Approximately 5 min prior to recording PET images, mice were anesthetized by inhalation of 1-2% isoflurane (Baxter Healthcare, Deerfield, IL)/oxygen gas mixture and placed on the scanner bed. PET images were recorded at various time-points between 1-120 h post-injection. List-mode data were acquired for between 10 and 30 min. using a T-ray energy window of 350-750 keV, and a coincidence timing window of 6 ns. For all static images, scan time was adjusted to ensure a minimum of 20 million coincident events were recorded. Data were sorted into 2-dimensional histograms by Fourier re-binning, and transverse images were reconstructed by filtered back-projection (FBP) into a 128×128×63 (0.72×0.72×1.3 mm) matrix. The reconstructed spatial resolution for ^89Zr was 1.9 mm full-width half maximum (FWHM) at the center of the field-of-view (FOV). […] An empirically determined system calibration factor (in units of [mCi/mL]/[cps/voxel]) for mice was used to convert voxel count rates to activity concentrations. […] Manually drawn 2-dimensional regions-of-interest (ROIs) or 3-dimensional volumes-of-interest (VOIs) were used to determined the maximum and mean % ID/g (decay corrected to the time of injection) in various tissues. Images were analyzed by using ASIPro VM™ software (Concorde Microsystems).

fPSA and tPSA [5] = test: Intratumoral PSA ELISA, castrate male mice bearing LNCaP-AR xenografts, no treatment or testosterone pellet (Table 10); assay type: in vivo, human
Protocol: as §1
Table 10 provides intratumoral PSA concentrations in castrate male mice bearing LNCaP-AR xenografts, receiving either no manipulation, or a subcutaneous testosterone pellet. […] Twenty four hours post injection, mice were sacrificed for PSA analysis. Tumor tissues were surgically excised. fPSA and tPSA were determined with PSA-directed ELISA (as above), and in the case of intratumoral PSA, the values were normalized to total protein concentration. ^afPSA concentrations are reported as ng/ml, ^btotal PSA concentrations are reported as ng/mL, ^ctotal protein concentrations are reported as ng/mg. Abbreviations: fPSA, fPSA; tPSA, total PSA.

fPSA and tPSA [6] = test: Tumor PSA ELISA, castrate male mice bearing 22Rv1 tumors, no treatment or testosterone pellet (Table 12); assay type: in vivo, human; conditions: 22Rv1 tumor, individual mice with s.c. testosterone pellet, 7 d
Protocol: as §1
Twenty four hours post-injection, mice were sacrificed for PSA analysis. […]

[7] = 10 mg/kg daily oral gavage, 10 mg/kg
[8] = 40 mg/kg daily oral gavage, 40 mg/kg
[9] = 80 mg/kg daily oral gavage, 80 mg/kg
[10] = tumor, individual mice with s.c. testosterone pellet, 7 d

In the case of `[18F-].[Na+]` [18FNaF], the “localization to site of bone repair (fractured tibia)” value [1] is reported as “readily localized”.
In the case of `O.O.O=P([O-])([O-])CP(=O)([O-])[O-].[99Tc+4]` [99mTc-MDP], the “localization to site of bone repair (fractured tibia)” value [1] is reported as “readily localized”.
For `CNC(=O)c1ccc(N2C(=S)N(c3ccc(C#N)c(C(F)(F)F)c3)C(=O)C2(C)C)cc1F` [MDV3100], the “AR signaling and fPSA synthesis” value (fPSA and tPSA [2]; each dose (10, 40, 80 mg/kg)) was “inhibited”, the “f/t PSA Ratio” value (fPSA and tPSA [2]; [7]) was 0.73 and 0.56 and 0.60 and 0.69 and the fPSA (fPSA and tPSA [2]; [7]) was 19.12 ng/mL and 48.98 ng/mL and 3.96 ng/mL and 474.40 ng/mL. The fPSA/tProtein (fPSA and tPSA [2]; [7]) was 3.29 and 7.07 and 0.88 and 51.57, the “f/t PSA Ratio” value (fPSA and tPSA [2]; [8]) was 0.89 and 0.85 and 0.80 and the fPSA (fPSA and tPSA [2]; [8]) was 71.24 ng/mL and 43.25 ng/mL and 98.26 ng/mL. The fPSA/tProtein (fPSA and tPSA [2]; [8]) was 11.61 and 6.14 and 15.13, the “f/t PSA Ratio” value (fPSA and tPSA [2]; [9]) was 0.57 and 0.69 and 0.59 and the fPSA (fPSA and tPSA [2]; [9]) was 5.97 ng/mL and 77.83 ng/mL and 57.31 ng/mL. The fPSA/tProtein (fPSA and tPSA [2]; [9]) was 1.18 and 10.34 and 9.99, the “tumor-associated 89Zr-5A10” value (LNCaP-AR xenografts [3]; 40 and 80 mg/kg dose vs vehicle) was “significantly decreased” and the “effect on localization of 89Zr-5A10 to tumor” value (LNCaP-AR xenografts [3]; daily oral gavage 7 d, 10, 40 or 80 mg/kg) was “inhibits”. The “tumor-associated 89Zr-5A10 by PET” value (LNCaP-AR xenografts [4]; 80 mg/kg daily oral gavage vs vehicle) was “statistical changes”.
`C[C@]12CC[C@H]3[C@@H](CCC4=CC(=O)CC[C@@]43C)[C@@H]1CC[C@@H]2O` [testosterone] was tested, and the “intratumoral PSA levels” value (fPSA and tPSA [5]; s.c. testosterone pellet vs no manipulation) was “increased”, the “f/t PSA Ratio” value (fPSA and tPSA [5]; [10]) was 0.81 and 0.60 and 0.70 and 0.20 and the fPSA (fPSA and tPSA [5]; [10]) was 147.77 ng/mL and 424.31 ng/mL and 384.89 ng/mL and 566.42 ng/mL. The fPSA/tProtein (fPSA and tPSA [5]; [10]) was 22.69 and 51.56 and 65.44 and 66.60, the fPSA (fPSA and tPSA [6]) was 31.0 ng/mL and 26.8 ng/mL and 29.8 ng/mL and 32.9 ng/mL and the fPSA/tProtein (fPSA and tPSA [6]) was 3.60 and 2.84 and 3.44 and 4.19. The “tumor-associated 89Zr-5A10 by PET” value (LNCaP-AR xenografts [4]; s.c. testosterone pellets) was “significant increase”.
